Experiments:
Type in all cases: functional
MDA-MB-435 = assay: Growth inhibition of human MDA-MB-435 cells
Malme-3M = assay: Growth inhibition of human MALME-3M cells
K562 = assay: Growth inhibition of human K562 cells
OVCAR-8 = assay: Growth inhibition of human OVCAR8 cells
EKVX = assay: Growth inhibition of human EKVX cells
SF-539 = assay: Growth inhibition of human SF539 cells
NCI/ADR-RES = assay: Growth inhibition of human NCI/ADR-RES cells
SK-MEL-2 = assay: Growth inhibition of human SK-MEL-2 cells
U-251 = assay: Growth inhibition of human U251 cells
LOX IMVI = assay: Growth inhibition of human LOXIMVI cells
SR = assay: Growth inhibition of human SR cells
COLO 205 = assay: Growth inhibition of human COLO205 cells
CAKI-1 = assay: Growth inhibition of human Caki1 cells
UO-31 = assay: Growth inhibition of human UO31 cells
NCI-H23 = assay: Growth inhibition of human NCI-H23 cells
NCI-H226 = assay: Growth inhibition of human NCI-H226 cells
MDA-N = assay: Growth inhibition of human MDA-N cells
RXF 393 = assay: Growth inhibition of human RXF393 cells
CCRF-CEM = assay: Growth inhibition of human CCRF-CEM cells
HCT-116 = assay: Growth inhibition of human HCT116 cells
PC-3 = assay: Growth inhibition of human PC3 cells
ACHN = assay: Growth inhibition of human ACHN cells
SF-295 = assay: Growth inhibition of human SF295 cells
SNB-75 = assay: Growth inhibition of human SNB75 cells
HCC 2998 = assay: Growth inhibition of human HCC2998 cells
[1] = Growth inhibition of human […] cells
KM12 = assay: Growth inhibition of human KM12 cells
OVCAR-3 = assay: Growth inhibition of human OVCAR-3 cells
TK-10 = assay: Growth inhibition of human TK10 cells
SNB-19 = assay: Growth inhibition of human SNB19 cells
SW-620 = assay: Growth inhibition of human SW620 cells
HL-60(TB) = assay: Growth inhibition of human HL-60(TB) cells
OVCAR-5 = assay: Growth inhibition of human OVCAR5 cells
NCI-H522 = assay: Growth inhibition of human NCI-H522 cells
MDA-MB-231 = assay: Growth inhibition of human MDA-MB-231 cells
HOP-62 = assay: Growth inhibition of human HOP62 cells
UACC-257 = assay: Growth inhibition of human UACC257 cells
SN12C = assay: Growth inhibition of human SN12C cells
HCT-15 = assay: Growth inhibition of human HCT15 cells
A549 = assay: Growth inhibition of human A549 cells
786-0 = assay: Growth inhibition of human 786-0 cells
HOP-92 = assay: Growth inhibition of human HOP92 cells
IGROV-1 = assay: Growth inhibition of human IGROV1 cells
T47D = assay: Growth inhibition of human T47D cells
[2] = Growth inhibition of human Hs 578T cells
UACC-62 = assay: Growth inhibition of human UACC62 cells
SF-268 = assay: Growth inhibition of human SF268 cells
BT-549 = assay: Growth inhibition of human BT549 cells
SK-OV-3 = assay: Growth inhibition of human SKOV3 cells
SK-MEL-28 = assay: Growth inhibition of human SK-MEL-28 cells
M14 = assay: Growth inhibition of human M14 cells
HT-29 = assay: Growth inhibition of human HT-29 cells
A498 = assay: Growth inhibition of human A498 cells
SK-MEL-5 = assay: Growth inhibition of human SK-MEL-5 cells
DU-145 = assay: Growth inhibition of human DU145 cells
NCI-H460 = assay: Growth inhibition of human NCI-H460 cells
OVCAR-4 = assay: Growth inhibition of human OVCAR4 cells
MCF7 = assay: Growth inhibition of human MCF7 cells
NCI-H322M = assay: Growth inhibition of human NCI-H322M cells
MOLT-4 = assay: Growth inhibition of human MOLT4 cells
[3] = read-out: pLC50 (the source's name) (converted)

SMILES: CC(=O)OC(C)(C)/C=C/C(=O)[C@](C)(O)[C@H]1[C@H](O)C[C@@]2(C)[C@@H]3CC=C4[C@@H](C=C(O)C(=O)C4(C)C)[C@]3(C)C(=O)C[C@]12C [CUCURBITACIN E]
- CC50 (MDA-MB-435; [3]): 22900 nM
- TGI (MDA-MB-435; read-out: pTGI (converted)): 2090 nM
- CC50 (Malme-3M; [3]): 4370 nM
- TGI (Malme-3M; read-out: pTGI (converted)): 79.4 nM
- CC50 (K562; [3]): 32400 nM
- TGI (K562; read-out: pTGI (converted)): 15100 nM
- CC50 (OVCAR-8; [3]): 15100 nM
- TGI (OVCAR-8; read-out: pTGI (converted)): 2290 nM
- CC50 (EKVX; [3]): 15800 nM
- TGI (EKVX; read-out: pTGI (converted)): 1100 nM
- CC50 (SF-539; [3]): 331 nM
- TGI (SF-539; read-out: pTGI (converted)): 18.2 nM
- CC50 (NCI/ADR-RES; [3]): 33900 nM
- TGI (NCI/ADR-RES; read-out: pTGI (converted)): 8130 nM
- CC50 (SK-MEL-2; [3]): 417 nM
- TGI (SK-MEL-2; read-out: pTGI (converted)): 25.7 nM
- CC50 (U-251; [3]): 3470 nM
- TGI (U-251; read-out: pTGI (converted)): 646 nM
- CC50 (LOX IMVI; [3]): 53.7 nM
- TGI (LOX IMVI; read-out: pTGI (converted)): 19.1 nM
- CC50 (SR; [3]): 34700 nM
- TGI (SR; read-out: pTGI (converted)): 14100 nM
- CC50 (COLO 205; [3]): 17000 nM
- TGI (COLO 205; read-out: pTGI (converted)): 5750 nM
- CC50 (CAKI-1; [3]): 79.4 nM
- TGI (CAKI-1; read-out: pTGI (converted)): 20.9 nM
- CC50 (UO-31; [3]): 2290 nM
- TGI (UO-31; read-out: pTGI (converted)): 77.6 nM
- CC50 (NCI-H23; [3]): 10000 nM
- TGI (NCI-H23; read-out: pTGI (converted)): 2190 nM
- CC50 (NCI-H226; [3]): 9770 nM
- TGI (NCI-H226; read-out: pTGI (converted)): 91.2 nM
- CC50 (MDA-N; [3]): 14100 nM
- TGI (MDA-N; read-out: pTGI (converted)): 1910 nM
- CC50 (RXF 393; [3]): 347 nM
- TGI (RXF 393; read-out: pTGI (converted)): 49 nM
- CC50 (CCRF-CEM; [3]): 34700 nM
- TGI (CCRF-CEM; read-out: pTGI (converted)): 6310 nM
- CC50 (HCT-116; [3]): 1820 nM
- TGI (HCT-116; read-out: pTGI (converted)): 372 nM
- CC50 (PC-3; [3]): 6760 nM
- TGI (PC-3; read-out: pTGI (converted)): 257 nM
- CC50 (ACHN; [3]): 2510 nM
- TGI (ACHN; read-out: pTGI (converted)): 141 nM
- CC50 (SF-295; [3]): 5620 nM
- TGI (SF-295; read-out: pTGI (converted)): 81.3 nM
- CC50 (SNB-75; [3]): 17000 nM
- TGI (SNB-75; read-out: pTGI (converted)): 603 nM
- CC50 (HCC 2998; [3]): 10000 nM
- TGI (HCC 2998; read-out: pTGI (converted)): 912 nM
- CC50 [1, 3]: 34700 nM
- TGI ([1]; read-out: pTGI (converted)): 8130 nM
- CC50 (KM12; [3]): 15100 nM
- TGI (KM12; read-out: pTGI (converted)): 4790 nM
- CC50 (OVCAR-3; [3]): 3720 nM
- TGI (OVCAR-3; read-out: pTGI (converted)): 83.2 nM
- CC50 (TK-10; [3]): 3310 nM
- TGI (TK-10; read-out: pTGI (converted)): 129 nM
- CC50 (SNB-19; [3]): 1510 nM
- TGI (SNB-19; read-out: pTGI (converted)): 209 nM
- CC50 (SW-620; [3]): 19100 nM
- TGI (SW-620; read-out: pTGI (converted)): 2090 nM
- CC50 (HL-60(TB); [3]): 34700 nM
- TGI (HL-60(TB); read-out: pTGI (converted)): 6610 nM
- CC50 (OVCAR-5; [3]): 18200 nM
- TGI (OVCAR-5; read-out: pTGI): 5250 nM
- CC50 (NCI-H522; [3]): 3310 nM
- TGI (NCI-H522; read-out: pTGI (converted)): 81.3 nM
- CC50 (MDA-MB-231; [3]): 891 nM
- TGI (MDA-MB-231; read-out: pTGI (converted)): 53.7 nM
- CC50 (HOP-62; [3]): 6920 nM
- TGI (HOP-62; read-out: pTGI (converted)): 309 nM
- CC50 (UACC-257; [3]): 11000 nM
- TGI (UACC-257; read-out: pTGI (converted)): 1200 nM
- CC50 (SN12C; [3]): 12900 nM
- TGI (SN12C; read-out: pTGI (converted)): 1410 nM
- CC50 (HCT-15; [3]): 11000 nM
- TGI (HCT-15; read-out: pTGI (converted)): 537 nM
- CC50 (A549; [3]): 33900 nM
- TGI (A549; read-out: pTGI (converted)): 5010 nM
- CC50 (786-0; [3]): 4070 nM
- TGI (786-0; read-out: pTGI (converted)): 129 nM
- CC50 (HOP-92; [3]): 191 nM
- TGI (HOP-92; read-out: pTGI (converted)): 63.1 nM
- CC50 (IGROV-1; [3]): 3890 nM
- TGI (IGROV-1; read-out: pTGI (converted)): 19.9 nM
- CC50 (T47D; [3]): 12900 nM
- TGI (T47D; read-out: pTGI (converted)): 2000 nM
- CC50 [2, 3]: 34700 nM
- TGI ([2]; read-out: pTGI (converted)): 89.1 nM
- CC50 (UACC-62; [3]): 1910 nM
- TGI (UACC-62; read-out: pTGI (converted)): 347 nM
- CC50 (SF-268; [3]): 12900 nM
- TGI (SF-268; read-out: pTGI (converted)): 100 nM
- CC50 (BT-549; [3]): 151 nM
- TGI (BT-549; read-out: pTGI (converted)): 12.9 nM
- CC50 (SK-OV-3; [3]): 12000 nM
- TGI (SK-OV-3; read-out: pTGI (converted)): 550 nM
- CC50 (SK-MEL-28; [3]): 4170 nM
- TGI (SK-MEL-28; read-out: pTGI (converted)): 77.6 nM
- CC50 (M14; [3]): 6760 nM
- TGI (M14; read-out: pTGI (converted)): 646 nM
- CC50 (HT-29; [3]): 10000 nM
- TGI (HT-29; read-out: pTGI (converted)): 1820 nM
- CC50 (A498; [3]): 63.1 nM
- TGI (A498; read-out: pTGI (converted)): 25.7 nM
- CC50 (SK-MEL-5; [3]): 759 nM
- TGI (SK-MEL-5; read-out: pTGI (converted)): 120 nM
- CC50 (DU-145; [3]): 12900 nM
- TGI (DU-145; read-out: pTGI (converted)): 2090 nM
- CC50 (NCI-H460; [3]): 19100 nM
- TGI (NCI-H460; read-out: pTGI (converted)): 2190 nM
- CC50 (OVCAR-4; [3]): 10000 nM
- TGI (OVCAR-4; read-out: pTGI (converted)): 417 nM
- CC50 (MCF7; [3]): 8910 nM
- TGI (MCF7; read-out: pTGI (converted)): 3240 nM
- CC50 (NCI-H322M; [3]): 12000 nM
- TGI (NCI-H322M; read-out: pTGI (converted)): 3020 nM
- CC50 (MOLT-4; [3]): 34700 nM
- TGI (MOLT-4; read-out: pTGI (converted)): 15100 nM

Reference: ChEMBL document CHEMBL1148076, “Cucurbitacins: differential cytotoxicity, dereplication and first isolation from Gonystylus keithii” (1994)
